Reference: the supplement of paper PMC10307832

What was measured:
Experiment in all cases: relative viability (nuclei count vs DMSO), 5 days (fraction); higher = more cells survive
Alisertib + Alpelisib = compound: COc1cc(Nc2ncc3c(n2)-c2ccc(Cl)cc2C(c2c(F)cccc2OC)=NC3)ccc1C(=O)O [Alisertib] + Cc1nc(NC(=O)N2CCC[C@H]2C(N)=O)sc1-c1ccnc(C(C)(C)C(F)(F)F)c1 [Alpelisib] (partner 2 µM)
Procedure, shortened: (§1)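 Cells from lung cancer lines were seeded into 1536-well plates and, one day later, dosed by pin tool. Treatments were either a single drug or a fixed dose of an anchor drug with five library-drug doses (not always all listed) in √10 steps. After 5 days, nuclei were stained in a one-step fixation (final 0.05% Triton X-100, 1% formaldehyde, 1 ug/ml Hoechst) and counted on 4× images, and relative viability is the treated-to-vehicle nuclei ratio, as the median of duplicate plates.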

Alisertib + Olaparib = compound: COc1cc(Nc2ncc3c(n2)-c2ccc(Cl)cc2C(c2c(F)cccc2OC)=NC3)ccc1C(=O)O [Alisertib] + O=C(c1cc(Cc2n[nH]c(=O)c3ccccc23)ccc1F)N1CCN(C(=O)C2CC2)CC1 [Olaparib] (partner 8 µM)
Procedure, shortened: as §1

Alisertib + Foretinib = compound: COc1cc(Nc2ncc3c(n2)-c2ccc(Cl)cc2C(c2c(F)cccc2OC)=NC3)ccc1C(=O)O [Alisertib] + COc1cc2c(Oc3ccc(NC(=O)C4(C(=O)Nc5ccc(F)cc5)CC4)cc3F)ccnc2cc1OCCCN1CCOCC1 [Foretinib] (partner 0.25 µM)
Procedure, shortened: as §1

Alisertib + Pemetrexed = compound: COc1cc(Nc2ncc3c(n2)-c2ccc(Cl)cc2C(c2c(F)cccc2OC)=NC3)ccc1C(=O)O [Alisertib] + Nc1nc2[nH]cc(CCc3ccc(C(=O)N[C@@H](CCC(=O)O)C(=O)O)cc3)c2c(=O)[nH]1 [Pemetrexed] (partner 0.2 µM)
Procedure, shortened: as §1

Cell Line	relative viability (Alisertib + Alpelisib; first compound 0.005 µM)	relative viability (Alisertib + Alpelisib; first compound 0.01581 µM)	relative viability (Alisertib + Alpelisib; first compound 0.05 µM)	relative viability (Alisertib + Alpelisib; first compound 0.1581 µM)	relative viability (Alisertib + Alpelisib; first compound 0.5 µM)	relative viability (Alisertib + Olaparib; first compound 0.005 µM)	relative viability (Alisertib + Olaparib; first compound 0.01581 µM)	relative viability (Alisertib + Olaparib; first compound 0.05 µM)	relative viability (Alisertib + Olaparib; first compound 0.1581 µM)	relative viability (Alisertib + Olaparib; first compound 0.5 µM)	relative viability (Alisertib + Foretinib; first compound 0.005 µM)	relative viability (Alisertib + Foretinib; first compound 0.01581 µM)	relative viability (Alisertib + Foretinib; first compound 0.05 µM)	relative viability (Alisertib + Foretinib; first compound 0.1581 µM)	relative viability (Alisertib + Foretinib; first compound 0.5 µM)	relative viability (Alisertib + Pemetrexed; first compound 0.005 µM)	relative viability (Alisertib + Pemetrexed; first compound 0.01581 µM)	relative viability (Alisertib + Pemetrexed; first compound 0.05 µM)	relative viability (Alisertib + Pemetrexed; first compound 0.1581 µM)	relative viability (Alisertib + Pemetrexed; first compound 0.5 µM)
H3255	0.797	0.687	0.463	0.252	0.199	0.547	0.566	0.385	0.292	0.24	0.823	0.821	0.573	0.219	0.177	0.516	0.572	0.457	0.309	0.255
EPLC-272H	0.858	0.838	0.486	0.266	0.133	0.671	0.471	0.293	0.0899	0.116	0.733	0.554	0.152	0.0794	0.133	0.284	0.245	0.172	0.138	0.118
RERF-LC-KJ	0.819	0.823	0.622	0.283	0.196	0.883	0.687	0.25	0.223	0.251	0.861	0.772	0.484	0.356	0.21	0.441	0.466	0.415	0.273	0.216
NCI-H1793	0.735	0.9	0.383	0.329	0.2	0.798	0.354	0.296	0.273	0.132	0.715	0.286	0.232	0.194	0.138	0.551	0.339	0.356	0.232	0.209
EKVX	0.819	0.811	0.49	0.215	0.185	0.848	0.674	0.282	0.207	0.203	0.954	0.812	0.194	0.195	0.202	0.364	0.377	0.266	0.172	0.187
ChaGo-K-1	–	–	–	–	–	0.355	0.339	0.174	0.17	0.154	0.922	0.845	0.237	0.21	0.192	0.238	0.281	0.238	0.189	0.169
NCI-H23	0.819	0.462	0.228	0.173	0.157	0.287	0.167	0.146	0.141	0.155	0.759	0.452	0.269	0.235	0.211	0.489	0.346	0.271	0.213	0.212
EMC-BAC-2	0.701	0.567	0.296	0.259	0.143	0.452	0.356	0.291	0.294	0.214	0.922	0.838	0.318	0.252	0.203	0.445	0.429	0.447	0.405	0.3
LOU-NH91	0.728	0.762	0.635	0.442	0.409	0.89	0.871	0.63	0.464	0.399	0.921	0.922	0.655	0.444	0.366	0.428	0.385	0.369	0.349	0.354
LU99A	0.493	0.455	0.181	0.163	0.154	0.253	0.223	0.189	0.151	0.133	0.741	0.762	0.361	0.27	0.205	0.205	0.193	0.185	0.161	0.145
NCI-H1395	0.968	1.23	0.994	0.558	0.362	0.438	0.424	0.442	0.37	0.361	0.895	0.916	0.696	0.561	0.38	0.725	0.766	0.574	0.413	0.353
NCI-H460	0.456	0.451	0.149	0.0179	0.0099	0.371	0.387	0.0754	0.0677	0.0562	0.98	0.956	0.283	0.0899	0.0482	0.0584	0.0653	0.0683	0.0474	0.0488
201T	0.985	0.997	0.964	0.783	0.378	0.823	0.803	0.711	0.361	0.33	1.14	0.997	1.02	0.453	0.271	0.314	0.299	0.358	0.335	0.274
NCI-H1944	0.788	0.882	0.626	0.41	0.207	0.402	0.381	0.318	0.201	0.178	0.845	0.818	0.633	0.386	0.227	0.579	0.662	0.564	0.246	0.18
NCI-H2405	0.817	0.707	0.699	0.42	0.248	0.715	0.787	0.794	0.351	0.251	1.02	0.992	0.838	0.371	0.286	1.01	1.03	0.871	0.308	0.295
NCI-H1703	0.298	0.311	0.211	0.157	0.18	0.534	0.387	0.198	0.153	0.141	0.313	0.379	0.29	0.248	0.201	–	–	–	–	–
NCI-H1755	0.876	0.852	0.63	0.414	0.248	0.814	0.792	0.532	0.509	0.287	0.85	0.846	0.615	0.532	0.325	0.443	0.399	0.386	0.321	0.34
NCI-H2087	0.939	0.816	0.226	0.203	0.171	0.549	0.527	0.13	0.126	0.108	1.12	0.856	0.176	0.172	0.119	0.641	0.632	0.423	0.163	0.144

Cell Line	relative viability (Alisertib + Alpelisib; first compound 0.005 µM)	relative viability (Alisertib + Alpelisib; first compound 0.01581 µM)	relative viability (Alisertib + Alpelisib; first compound 0.05 µM)	relative viability (Alisertib + Alpelisib; first compound 0.1581 µM)	relative viability (Alisertib + Alpelisib; first compound 0.5 µM)	relative viability (Alisertib + Olaparib; first compound 0.005 µM)	relative viability (Alisertib + Olaparib; first compound 0.01581 µM)	relative viability (Alisertib + Olaparib; first compound 0.05 µM)	relative viability (Alisertib + Olaparib; first compound 0.1581 µM)	relative viability (Alisertib + Olaparib; first compound 0.5 µM)	relative viability (Alisertib + Foretinib; first compound 0.005 µM)	relative viability (Alisertib + Foretinib; first compound 0.01581 µM)	relative viability (Alisertib + Foretinib; first compound 0.05 µM)	relative viability (Alisertib + Foretinib; first compound 0.1581 µM)	relative viability (Alisertib + Foretinib; first compound 0.5 µM)	relative viability (Alisertib + Pemetrexed; first compound 0.005 µM)	relative viability (Alisertib + Pemetrexed; first compound 0.01581 µM)	relative viability (Alisertib + Pemetrexed; first compound 0.05 µM)	relative viability (Alisertib + Pemetrexed; first compound 0.1581 µM)	relative viability (Alisertib + Pemetrexed; first compound 0.5 µM)
NCI-H2228	0.781	0.499	0.256	0.133	0.193	0.652	0.767	0.205	0.0922	0.0747	0.734	0.642	0.493	0.0956	0.114	0.344	0.336	0.26	0.121	0.0987
NCI-H838	0.904	0.993	0.484	0.315	0.224	0.673	0.552	0.324	0.169	0.152	1.03	0.971	0.605	0.394	0.202	0.222	0.233	0.198	0.2	0.17
NCI-H661	0.579	0.669	0.552	0.31	0.235	0.735	0.562	0.397	0.355	0.357	0.995	1.04	0.813	0.423	0.369	0.868	0.858	0.636	0.46	0.324
NCI-H520	0.966	0.766	0.429	0.323	0.273	0.317	0.244	0.217	0.18	0.249	1.15	0.644	0.486	0.266	0.322	0.653	0.491	0.346	0.273	0.253
EBC-1	0.578	0.597	0.272	0.225	0.153	0.609	0.478	0.195	0.216	0.132	0.109	0.103	0.08	0.0764	0.0821	–	–	–	–	–
NCI-H727	0.663	0.515	0.434	0.302	0.244	0.679	0.624	0.556	0.518	0.465	0.658	0.922	0.488	0.352	0.417	–	–	–	–	–
NCI-H1299	1.06	1	0.815	0.522	0.279	0.931	0.877	0.582	0.396	0.193	1.05	1.05	0.665	0.333	0.192	–	–	–	–	–
LK-2	1.08	0.878	0.364	0.299	0.268	0.648	0.56	0.294	0.183	0.109	0.955	0.979	0.601	0.245	0.189	0.286	0.236	0.188	0.141	0.148
NCI-H1993	0.625	0.652	0.538	0.625	0.573	1.09	0.995	0.682	0.483	0.433	0.772	0.849	0.525	0.484	0.557	0.614	0.631	0.506	0.539	0.422
NCI-H1648	–	–	–	–	–	–	0.711	0.293	0.242	0.267	–	–	–	–	–	–	0.658	0.752	0.27	0.276
NCI-H1650	–	–	–	–	–	0.813	0.61	0.16	0.163	0.204	1.19	0.873	0.653	0.23	0.231	0.402	0.362	0.256	0.223	0.189
SW 900	–	–	–	–	–	0.897	0.648	0.306	0.29	0.298	0.68	0.832	0.598	0.194	0.186	0.445	0.459	0.438	0.178	0.194
IA-LM	0.407	0.739	0.462	0.247	0.0598	0.671	0.674	0.596	0.449	0.0913	1.11	1.09	0.737	0.214	0.0846	–	–	–	–	–
NCI-H1563	0.967	0.848	0.9	0.824	0.719	–	–	–	–	–	0.908	0.833	0.846	0.818	0.607	0.806	0.807	0.683	0.543	0.663
HCC-44	0.759	0.716	0.458	0.17	0.0925	0.944	0.856	0.501	0.508	0.391	–	–	–	–	–	0.566	0.601	0.545	0.45	0.394
ABC-1	0.979	0.724	0.929	0.475	0.223	0.534	0.708	0.677	0.555	0.432	1.08	1.06	0.58	0.344	0.22	–	–	–	–	–
NCI-H522	–	–	–	–	–	0.604	0.591	0.453	0.452	0.437	–	–	–	–	–	0.743	1.22	0.989	0.637	0.516
NCI-H1792	0.678	0.606	0.246	0.0918	0.0744	0.425	0.384	0.138	0.0583	0.0651	–	–	–	–	–	0.674	0.346	0.203	0.0756	0.0468
